Measured values published in patent US20250195492A1, “USE OF IPTACOPAN FOR THE TREATMENT OF LUPUS NEPHRITIS” (Novartis AG, priority 2022, published 2025).

Legend:
alternative pathway = test: Wieslab assay (least sensitive alternative pathway biomarker), FIH trial CLNP023X2101; assay type: in vivo, human; conditions: 200 mg b.i.d.
Protocol: The study will first investigate the treatment effect of iptacopan 200 mg b.i.d. on top of SoC compared to SoC alone (Part 1). This dose was chosen based on the least sensitive alternative pathway biomarker (Wieslab assay); it ensures >90% target inhibition in more than 70% of individuals, as determined from FIH trial CLNP023X2101. Dose range finding with doses between 10 to 200 mg b.i.d was performed in Phase 2 studies in IgAN, C3G and PNH.

[1] = Healthy volunteer studies CLNP023X2101 and CLNP023X1102 (SAD and MAD); assay type: in vivo
PNH patients = test: Phase 2 studies in PNH (CLNP023X2201 add-on to eculizumab, CLNP023X2204 monotherapy); assay type: in vivo, human
patients with IgAN = test: Phase 2 study in patients with IgAN (CLNP023X2203), interim analysis; assay type: in vivo, human
patients with C3G = test: Phase 2 study in patients with C3G (CLNP023X2202), interim analysis; assay type: in vivo, human; conditions: 200 mg b.i.d.
[2] = 102 subjects, SAD 10 to 400 mg, MAD 10 to 200 mg b.i.d. for 2 weeks
[3] = 200 mg b.i.d., add-on to eculizumab and monotherapy, majority of patients, preliminary data
[4] = 200 mg b.i.d. compared to placebo

CCO[C@H]1CCN(Cc2c(OC)cc(C)c3[nH]ccc23)[C@H](c2ccc(C(=O)O)cc2)C1 [iptacopan, 4-((2S,4S)-(4-ethoxy-1-((5-methoxy-7-methyl-1H-indol-4-yl)methyl)piperidin-2-yl))benzoic acid]
proportion of individuals with >90% target inhibition (alternative pathway): more than 70% | target inhibition (Wieslab assay) (alternative pathway; reached in more than 70% of individuals): > 90% | deaths, SAEs, AEs leading to study drug discontinuation [1, 2]: No deaths, serious adverse events (SAEs), or adverse events (AEs) leading to study drug discontinuation were observed | tolerability [1, 2]: well tolerated | solubility ([1]; as reported from the healthy volunteer studies): high | absorption ([1]; healthy volunteers, SAD/MAD): fast | LDH levels (PNH patients; [3]): reduction in LDH levels | hemoglobin in the absence of RBC transfusions (PNH patients; [3]): improvements in hemoglobin | hemolysis (PNH patients; 200 mg b.i.d., preliminary data): control of both intra- and extravascular hemolysis | safety and tolerability (PNH patients; both PNH studies): overall safe and well tolerated | safety profile (patients with IgAN): overall well-tolerated safety profile | UPCR (patients with IgAN; [4]): clinically meaningful UPCR reduction | eGFR levels (patients with IgAN; [4]): stable/improving | dose-response effect on UPCR (patients with IgAN; at 90 days, primary endpoint): statistically significant dose-response effect | tolerability (patients with C3G): well-tolerated | eGFR (patients with C3G; at 12 weeks): stabilization | reduction in UPCR (patients with C3G; at 12 weeks): 49%
